Target: T1, GST-tagged-Wee1 kinase (Homo sapiens, UniProt P30291)
T1 construct: purchased Carnabio 05-177
Test: Wee1 time-resolved fluorescence equilibrium binding assay (displacement of Oregon Green-labeled ATP-competitive probe)
Conditions: TR-FRET probe displacement; 2 nM GST-Wee1, 300 nM probe, 1 hour incubation; read-out: Wee-1 binding (Ki nM)
Procedure: Wee1 kinase was assayed using a time-resolved fluorescence equilibrium binding assay monitoring displacement of a rapidly reversible Oregon Green-labeled ATP-competitive kinase probe (N-(2-(2-(2-(4-(4-(5-chloro-4-(2-(1-hydroxycyclobutyl)thiazol-5-yl)-1H-pyrrolo[2,3-b]pyridin-2-yl)phenyl)piperazin-1-yl)ethoxy)ethoxy)ethyl)-2′,7′-difluoro-3′,6′-dihydroxy-3-oxo-3H-spiro[isobenzofuran-1,9′-xanthene]-5-carboxamide) by competitive Wee1 inhibitors.

T1 sequence (P30291 whole entry): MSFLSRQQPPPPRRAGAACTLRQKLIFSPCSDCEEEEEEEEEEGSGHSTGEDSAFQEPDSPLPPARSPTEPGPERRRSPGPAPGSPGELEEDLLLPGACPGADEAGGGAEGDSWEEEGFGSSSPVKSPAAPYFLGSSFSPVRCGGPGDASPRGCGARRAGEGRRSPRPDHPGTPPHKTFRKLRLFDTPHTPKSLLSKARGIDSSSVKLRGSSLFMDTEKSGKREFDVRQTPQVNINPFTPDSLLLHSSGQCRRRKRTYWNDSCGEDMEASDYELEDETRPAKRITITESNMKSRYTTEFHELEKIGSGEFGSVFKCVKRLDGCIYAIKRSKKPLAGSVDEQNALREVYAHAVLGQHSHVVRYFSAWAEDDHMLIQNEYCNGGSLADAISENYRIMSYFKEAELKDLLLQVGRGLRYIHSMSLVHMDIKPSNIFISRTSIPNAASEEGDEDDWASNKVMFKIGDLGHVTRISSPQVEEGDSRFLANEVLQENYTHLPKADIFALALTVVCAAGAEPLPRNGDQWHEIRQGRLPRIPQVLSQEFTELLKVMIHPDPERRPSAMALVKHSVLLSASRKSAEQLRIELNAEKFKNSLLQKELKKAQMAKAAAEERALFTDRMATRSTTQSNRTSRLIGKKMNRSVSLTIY

| SMILES | Ki [nM] |
| --- | --- |
| C=CCN1c2ccccc2-c2nc(Nc3ccc(OCCN(CC)CC)cc3)ncc2S1(=O)=O [Example 3, 6-allyl-N-{4-[2-(diethylamino)ethoxy]phenyl}-6H-pyrimido[5,4-c][2,1]benzothiazin-2-amine 5,5-dioxide] | 4.8 |
| CN1c2ccccc2-c2nc(Nc3ccc(N4CCOCC4)cc3)ncc2S1(=O)=O [Example 57, 6-methyl-N-[4-(morpholin-4-yl)phenyl]-6H-pyrimido[5,4-c][2,1]benzothiazin-2-amine 5,5-dioxide] | 12 |
| C=CCN1c2ccccc2-c2nc(Nc3ccc(N4CCCCC4)cc3)ncc2S1(=O)=O [Example 11, 6-allyl-N-[4-(piperidin-1-yl)phenyl]-6H-pyrimido[5,4-c][2,1]benzothiazin-2-amine 5,5-dioxide] | 31 |
| C=CCN1c2ncccc2-c2nc(Nc3ccc(OCCN(CC)CC)cc3)ncc2S1(=O)=O [Example 39, 6-allyl-N-{4-[2-(diethylamino)ethoxy]phenyl}-6H-pyrido[2,3-c]pyrimido[4,5-e][1,2]thiazin-2-amine 5,5-dioxide] | 15 |
| C=CCN1c2c(C(=O)OC)cccc2-c2nc(Nc3ccc(N4CCN(C)CC4)cc3)ncc2S1(=O)=O [Example 60, methyl 6-allyl-2-{[4-(4-methylpiperazin-1-yl)phenyl]amino}-6H-pyrimido[5,4-c][2,1]benzothiazine-7-carboxylate 5,5-dioxide] | 9 |
| C=CCN1c2ncccc2-c2nc(Nc3ccc4c(c3)N(C)CCC4)ncc2S1(=O)=O [Example 49, 6-allyl-N-(1-methyl-1,2,3,4-tetrahydroquinolin-7-yl)-6H-pyrido[2,3-c]pyrimido[4,5-e][1,2]thiazin-2-amine 5,5-dioxide] | 45 |
| C=CCN1c2ncccc2-c2nc(Nc3ccc(N4CCN(C)CC4)cc3C)ncc2S1(=O)=O [Example 44, 6-allyl-N-[2-methyl-4-(4-methylpiperazin-1-yl)phenyl]-6H-pyrido[2,3-c]pyrimido[4,5-e][1,2]thiazin-2-amine 5,5-dioxide] | 487 |
| C=CCN1c2ncccc2-c2nc(Nc3ccc(N4CCN(C)CC4)cc3)ncc2S1(=O)=O [Example 40, 6-allyl-N-[4-(4-methylpiperazin-1-yl)phenyl]-6H-pyrido[2,3-c]pyrimido[4,5-e][1,2]thiazin-2-amine 5,5-dioxide] | 5 |
| C=CCN1c2ccccc2-c2nc(Nc3ccc(N4CCN(C(C)=O)CC4)cc3)ncc2S1(=O)=O [Example 10, 1-(4-{4-[(6-allyl-5,5-dioxido-6H-pyrimido[5,4-c][2,1]benzothiazin-2-yl)amino]phenyl}piperazin-1-yl)ethanone] | 5 |
| C=CCN1c2ccccc2-c2nc(Nc3ccccc3)ncc2S1(=O)=O [Example 24, 6-allyl-N-phenyl-6H-pyrimido[5,4-c][2,1]benzothiazin-2-amine 5,5-dioxide] | 220 |
| C=CCN1c2ncccc2-c2nc(Nc3ccc4c(c3)CNCC43CC3)ncc2S1(=O)=O [Example 54, 6-allyl-N-(2′,3′-dihydro-1′H-spiro[cyclopropane-1,4′-isoquinolin]-7′-yl)-6H-pyrido[2,3-c]pyrimido[4,5-e][1,2]thiazin-2-amine 5,5-dioxide] | 1.2 |
| C/C=C/N1c2ccccc2-c2nc(Nc3ccc(N4CCN(C)CC4)cc3)ncc2S1(=O)=O [Example 2, N-[4-(4-methylpiperazin-1-yl)phenyl]-6-[(1E)-prop-1-en-1-yl]-6H-pyrimido[5,4-c][2,1]benzothiazin-2-amine 5,5-dioxide] | 1.7 |
| C=CCN1c2ncccc2-c2nc(Nc3ccc(N4CCNCC4)c(C)c3)ncc2S1(=O)=O [Example 42, 6-allyl-N-[3-methyl-4-(piperazin-1-yl)phenyl]-6H-pyrido[2,3-c]pyrimido[4,5-e][1,2]thiazin-2-amine 5,5-dioxide] | 2 |
| C=CCN1c2ccccc2-c2nc(Nc3ccc(C4CCCCC4)cc3)ncc2S1(=O)=O [Example 13, 6-allyl-N-(4-cyclohexylphenyl)-6H-pyrimido[5,4-c][2,1]benzothiazin-2-amine 5,5-dioxide] | 2080 |
| C=CCN1c2ccccc2-c2nc(Nc3ccc4c(c3)CCCC4)ncc2S1(=O)=O [Example 17, 6-allyl-N-(5,6,7,8-tetrahydronaphthalen-2-yl)-6H-pyrimido[5,4-c][2,1]benzothiazin-2-amine 5,5-dioxide] | 2040 |
| C=CCN1c2ccccc2-c2nc(Nc3ccc(N4CCOCC4)cc3)ncc2S1(=O)=O [Example 16, 6-allyl-N-[4-(morpholin-4-yl)phenyl]-6H-pyrimido[5,4-c][2,1]benzothiazin-2-amine 5,5-dioxide] | 7 |
| C=CCN1c2ncccc2-c2nc(Nc3ccc(N4CCN(C)CC4)cn3)ncc2S1(=O)=O [Example 102, N-[5-(4-methylpiperazin-1-yl)pyridin-2-yl]-6-(prop-2-en-1-yl)-6H-pyrido[2,3-c]pyrimido[4,5-e][1,2]thiazin-2-amine 5,5-dioxide] | 210 |
| C=CCN1c2ccccc2-c2nc(Nc3ccc(N4CCN(C)CC4)cc3OC)ncc2S1(=O)=O [Example 15, 6-allyl-N-[2-methoxy-4-(4-methylpiperazin-1-yl)phenyl]-6H-pyrimido[5,4-c][2,1]benzothiazin-2-amine 5,5-dioxide] | 166 |

Other lines, results leading:

| Ki [nM] | SMILES |
| --- | --- |
| 9 | CN1CCN(c2ccc(Nc3ncc4c(n3)-c3ccccc3N(C)S4(=O)=O)cc2)CC1 [Example 56, 6-methyl-N-[4-(4-methylpiperazin-1-yl)phenyl]-6H-pyrimido[5,4-c][2,1]benzothiazin-2-amine 5,5-dioxide] |
| 2 | C=CCN1c2cc(Br)ccc2-c2nc(Nc3ccc(N4CCN(C)CC4)cc3)ncc2S1(=O)=O [Example 64, 6-allyl-8-bromo-N-[4-(4-methylpiperazin-1-yl)phenyl]-6H-pyrimido[5,4-c][2,1]benzothiazin-2-amine 5,5-dioxide] |
| 2 | COC(=O)c1ccc2c(c1)N(c1ccccc1)S(=O)(=O)c1cnc(Nc3ccc(N4CCN(C)CC4)cc3)nc1-2 [Example 88, methyl 2-{[4-(4-methylpiperazin-1-yl)phenyl]amino}-6-phenyl-6H-pyrimido[5,4-c][2,1]benzothiazine-8-carboxylate 5,5-dioxide] |
| 10 | CCCN1c2cc(C(=O)NC)ccc2-c2nc(Nc3ccc(N4CCN(C)CC4)cc3)ncc2S1(=O)=O [Example 82, N-methyl-2-{[4-(4-methylpiperazin-1-yl)phenyl]amino}-6-propyl-6H-pyrimido[5,4-c][2,1]benzothiazine-8-carboxamide 5,5-dioxide] |
| 63 | COC(=O)c1ccc2c(c1)N(c1cccc(C)c1)S(=O)(=O)c1cnc(Nc3ccc(N4CCN(C)CC4)cc3)nc1-2 [Example 89, methyl 6-(3-methylphenyl)-2-{[4-(4-methylpiperazin-1-yl)phenyl]amino}-6H-pyrimido[5,4-c][2,1]benzothiazine-8-carboxylate 5,5-dioxide] |
| 5 | CCCN1c2cc(-c3ccncc3)ccc2-c2nc(Nc3ccc(N4CCN(C)CC4)cc3)ncc2S1(=O)=O [Example 76, N-[4-(4-methylpiperazin-1-yl)phenyl]-6-propyl-8-(pyridin-4-yl)-6H-pyrimido[5,4-c][2,1]benzothiazin-2-amine 5,5-dioxide] |
| 20 | CCCN1c2cc(-c3ccsc3)ccc2-c2nc(Nc3ccc(N4CCN(C)CC4)cc3)ncc2S1(=O)=O [Example 74, N-[4-(4-methylpiperazin-1-yl)phenyl]-6-propyl-8-(3-thienyl)-6H-pyrimido[5,4-c][2,1]benzothiazin-2-amine 5,5-dioxide] |
| 14 | CCCN1c2cc(-n3ccnc3)ccc2-c2nc(Nc3ccc(N4CCN(C)CC4)cc3)ncc2S1(=O)=O [Example 92, 8-(1H-imidazol-1-yl)-N-[4-(4-methylpiperazin-1-yl)phenyl]-6-propyl-6H-pyrimido[5,4-c][2,1]benzothiazin-2-amine 5,5-dioxide] |
| 14 | CCCN1c2cc(-c3ccc(O)cc3)ccc2-c2nc(Nc3ccc(N4CCN(C)CC4)cc3)ncc2S1(=O)=O [Example 75, 4-(2-{[4-(4-methylpiperazin-1-yl)phenyl]amino}-5,5-dioxido-6-propyl-6H-pyrimido[5,4-c][2,1]benzothiazin-8-yl)phenol] |
| 14 | CCCN1c2cc(C(C)(C)O)ccc2-c2nc(Nc3ccc(N4CCN(C)CC4)cc3)ncc2S1(=O)=O [Example 80, 2-(2-{[4-(4-methylpiperazin-1-yl)phenyl]amino}-5,5-dioxido-6-propyl-6H-pyrimido[5,4-c][2,1]benzothiazin-8-yl)propan-2-ol] |
| 23 | CCCN1c2cc(C(=O)N(C)C)ccc2-c2nc(Nc3ccc(N4CCN(C)CC4)cc3)ncc2S1(=O)=O [Example 83, N,N-dimethyl-2-{[4-(4-methylpiperazin-1-yl)phenyl]amino}-6-propyl-6H-pyrimido[5,4-c][2,1]benzothiazine-8-carboxamide 5,5-dioxide] |
| 7 | CCCN1c2cc(-c3ccc(C(=O)NC4CC4)cc3)ccc2-c2nc(Nc3ccc(N4CCN(C)CC4)cc3)ncc2S1(=O)=O [Example 72, N-cyclopropyl-4-(2-{[4-(4-methylpiperazin-1-yl)phenyl]amino}-5,5-dioxido-6-propyl-6H-pyrimido[5,4-c][2,1]benzothiazin-8-yl)benzamide] |
| 5 | CCCN1c2cc(C(=O)NCCOC)ccc2-c2nc(Nc3ccc(N4CCN(C)CC4)cc3)ncc2S1(=O)=O [Example 85, N-(2-methoxyethyl)-2-{[4-(4-methylpiperazin-1-yl)phenyl]amino}-6-propyl-6H-pyrimido[5,4-c][2,1]benzothiazine-8-carboxamide 5,5-dioxide] |
| 256 | COC(=O)c1ccc2c(c1)NS(=O)(=O)c1cnc(Nc3ccc(N4CCN(C)CC4)cc3)nc1-2 [Example 65, methyl 2-{[4-(4-methylpiperazin-1-yl)phenyl]amino}-6H-pyrimido[5,4-c][2,1]benzothiazine-8-carboxylate 5,5-dioxide] |

Reference: patent publication US8716297B2, “Chemical entities to be used for Wee1 inhibition for the treatment of cancer” (AbbVie Inc., priority 2011, dated 2014)
